Measured values taken from patent US5891901A, “Substituted pyrroles” (Hoffmann-La Roche Inc., priority 1997, dated 1999).

Key:
[1] = test system: SW480 cells; experiment: Antiproliferative activity, SW480 colon carcinoma cell line (MTT); assay type: cell-based; details: Homo sapiens, 168 h, MTT at day 7 post-drug addition, values marked * (Compounds A, B, C) are an average of two separate experiments
Procedure: (§1) The epithelial breast carcinoma cell line, MDA-MB435 and the colon carcinoma cell line, SW480, were purchased from ATCC (American Type Culture Collection) and were grown in culture in medium as recommended by ATCC. For analysis of the effect of various compounds on growth of these cells, the cells were plated at a concentration of 1500 cells/well in a 96 well tissue culture plate ("test plate"). The day after the cells were plated, the compounds to be analyzed were dissolved in 100% DMSO (dimethyl sulfoxide) to yield a 10 mM stock solution. Each compound was diluted in H2 O to 1 mM and was added to triplicate wells in the first row of a 96 well master plate which contains medium to yield a final concentration of 40 μM. The compounds were then serially diluted in medium in the "master plate". The diluted compound(s) were then transferred to test plates containing cells. A row of vehicle "control cells" received DMSO. The final concentration of DMSO in each well was 0.1%. At day 5 post-drug addition, the plate containing MDA-MB435 cells were analyzed as follows. Plates containing SW480 cells were analyzed at day 7 post-drug addition as follows.
(§2) MTT ([3-(4,5-dimethylthiazole-2-yl)-2,5-diphenyl-2H-tetrazolium bromide]; thiazolyl blue) was added to each well to yield a final concentration of 1 mg/ml. The plate was then incubated at 37° C. for 21/2-3 hours. The MTT containing medium was then removed and 50 μl of 100% ethanol was added to each well to dissolve the formazan. The absorbences were then read using an automated plate reader (Bio-tek microplate reader). IC50 's were calculated using the Reed and Munsch equation, see, Am. J. Hygiene Vol. 27 pgs. 493-497, 1938.

[2] = test system: MDA-MB435 cells; experiment: Antiproliferative activity, MDA-MB435 epithelial breast carcinoma cell line (MTT); assay type: cell-based; details: Homo sapiens, MDA-MB-435, 120 h, MTT at day 5 post-drug addition, values marked * (Compounds A, B, D) are an average of two separate experiments, read-out: Antiproliferative Activity, MDAMB435 IC50
Procedure: as §1, §2

With `Cc1ccc2c(C3=C(c4cn(C)c5ccccc45)C(=O)NC3=O)cn(C)c2c1` [Compound A, 3-(1,6-dimethyl-1H-indol-3-yl)-4-(1-methyl-1H-indol-3yl)-pyrrole-2,5-dione] the IC50 [1] was 29 nM and the IC50 [2] was 33 nM.

Work on `CSc1ccc2c(C3=C(c4cn(C)c5ccccc45)C(=O)NC3=O)cn(C)c2c1` [Compound B, 3-(6-methylsulfanyl-1-methyl-1H-indol-3-yl)-4-(1-methyl-1H-indol-3-yl)-pyrrole-2,5-dione] yielded an IC50 [1] of 70 nM and an IC50 [2] of 45 nM.

`Cn1cc(C2=C(c3cn(C)c4cc(O)ccc34)C(=O)NC2=O)c2ccccc21` [Compound C, 3-(6-hydroxy-1-methyl-1H-indol-3-yl)-4-(1-methyl-1H-indol-3-yl)-pyrrole-2,5-dione] showed an IC50 [1] of 70 nM and an IC50 [2] of 30 nM.

With `CCc1ccc2c(C3=C(c4cn(C)c5ccccc45)C(=O)NC3=O)cn(C)c2c1` [Compound D, 3-(6-ethyl-1-methyl-1H-indol-3-yl)-4-(1-methyl-1H-indol-3-yl)-pyrrole-2,5-dione] the IC50 [2] was 80 nM.

`Cn1cc(C2=C(c3cn(C)c4cc(CC#N)ccc34)C(=O)NC2=O)c2ccccc21` [Compound E, {1-methyl-3-[4-(1-methyl-1H-indol-3-yl)-2,5-dioxo-2,5-dihydro-1H-pyrrol-3-yl]-1H-indol-6-yl}-acetonitrile] showed an IC50 [2] of 200 nM.
